Experiments:
[1] = system: mouse RT3 phage antibody scFv clone 68 (PCR pattern D); experiment: competitive inhibition ELISA, scFv binding to RT3-BSA; conditions: 100 uM competitor, preincubated 1 hour at room temperature; ELISA signal normalized to no inhibitor (FIG. 8); clone cross-reacts with BSA
Method: (§1) The clones selected for analysis and their corresponding PCR pattern (see Table 1, Example 4.3) were: 50 (PCR B), 64 (PCR A), 68 (PCR D), 71 (PCR E), 80 (PCR C), 84 (PCR A), 95 (PCR I), 96 (PCR A), and 97 (PCR A). Soluble scFv was purified from 50 ml cultures of each clone using the IMAC protocol described in Example 4.1, except bound antibody was eluted with 50 mM EDTA, 0.5M NaCl. The scFv concentration for each clone was estimated from silver stained SDS polyacrylamide gels by running a portion of the eluted protein on a gel containing appropriate scFv concentration standards. The scFv protein was diluted to 4 ug/ml and then serially diluted 1:2 across 11 wells of RT3-BSA coated ELISA plate. The concentration of scFv giving 50% of the maximum ELISA signal was determined from the titration. This concentration of scFv was used for a subsequent competitive inhibition assay described below.
(§2) A competitive inhibition ELISA assay was performed by incubating scFV (at a concentration as determined by titration above) with 100 uM of each of the following compounds: RT3 hapten (Compound 7, FIG. 1), left hand portion of RT3 hapten (designated RT3A, Compound 8, FIG. 2), right hand portion of RT3 hapten (designated RT3B, Compound 12, FIG. 3), The left and right hand portions of the expected products from the esteriolytic cleavage of substrate (Compound 15, FIG. 4) designated Product A (Mesitylacetic acid, FIG. 4) and Product B (Compound 13, FIG. 4). The scFv was preincubated with the inhibitor compound in tubes at room temperature for 1 hour prior to addition to RT3-BSA coated ELISA wells. The […] readings have been normalized to a value of 1, which represents the ELISA signal seen for the corresponding scFv in the absence of added competitive inhibitor.

[2] = system: mouse RT3 phage antibody scFv clone 71 (PCR pattern E); experiment: as above; conditions: 100 uM competitor, preincubated 1 hour at room temperature; ELISA signal normalized to no inhibitor (FIG. 8); clone cross-reacts with BSA
Method: as §1, §2

[3] = system: mouse anti-RT3 scFv clone 50 (PCR pattern B); experiment: as above; conditions: 100 uM competitor, preincubated 1 hour at room temperature; ELISA signal normalized to no inhibitor (FIG. 8)
Method: as §1, §2

[4] = system: mouse anti-RT3 scFv clone 64 (PCR pattern A); experiment: as above; conditions: 100 uM competitor, preincubated 1 hour at room temperature; ELISA signal normalized to no inhibitor (FIG. 8)
Method: as §1, §2

[5] = system: mouse anti-RT3 scFv clone 80 (PCR pattern C); experiment: as above; conditions: 100 uM competitor, preincubated 1 hour at room temperature; ELISA signal normalized to no inhibitor (FIG. 8)
Method: as §1, §2

[6] = system: mouse anti-RT3 scFv clone 84 (PCR pattern A); experiment: as above; conditions: 100 uM competitor, preincubated 1 hour at room temperature; ELISA signal normalized to no inhibitor (FIG. 8)
Method: as §1, §2

[7] = system: mouse anti-RT3 scFv clone 95 (PCR pattern I); experiment: as above; conditions: 100 uM competitor, preincubated 1 hour at room temperature; ELISA signal normalized to no inhibitor (FIG. 8)
Method: as §1, §2

[8] = system: mouse anti-RT3 scFv clone 96 (PCR pattern A); experiment: as above; conditions: 100 uM competitor, preincubated 1 hour at room temperature; ELISA signal normalized to no inhibitor (FIG. 8)
Method: as §1, §2

[9] = system: mouse anti-RT3 scFv clone 97 (PCR pattern A); experiment: as above; conditions: 100 uM competitor, preincubated 1 hour at room temperature; ELISA signal normalized to no inhibitor (FIG. 8)
Method: as §1, §2

[10] = system: catalytic mouse anti-RT3 scFv clone 18; experiment: catalytic assay (HPLC), hydrolysis of RT3 substrate by scFv; format: biochemical
Method: (§3) To further examine the scFv fragments for catalytic activity, the potentially-catalytic proteins identified in the early screen described above were individually grown and purified. Purification of the scFv was acheived as described in Example 6.1 using either IMAC or affinity chromotagraphy on anti-Myc-Protein A agarose. Assays were performed in the same buffer systems and pH values as in the early screen but the antibodies were tested individually and they were not immobilized but free in solution.
(§4) From these secondary assays, two scFv molecules, designated 18 and 83, catalytic activity was found. Clone 18 appeared to be active at pH 9.0 but not at pH 7.0 while clone 83 appeared to be active at pH 7.0 but not at pH 9.0 or 5.0. […] These two clones were selected as candidates for large scale purifcation of scFv as described below. The results of these assays are presented in Example 6.4.
For clone 18 a typical catalytic assay was set up as follows: 50 μl of scFv was added to 145 μl of RT3 substrate (Compound 15, FIG. 4) and 5 μl of water or for some assays 5 μl of RT3 hapten. A blank consisting of 50 μl of water and […] of RT3 substrate was set up to monitor the background hydrolysis of the RT3 substrate. The reaction was allowed to proceed for 6 hours after which samples were frozen at -20° C. to stop the reaction. Samples were analyzed by HPLC as described in example 5.1. […]

[11] = system: catalytic mouse anti-RT3 scFv clone 83; experiment: as above; format: biochemical
Method: as §3, §4
Assay of IMAC or HIC purified scFv from clone 83 was done in a similar manner as described for clone 18 with the following exceptions. Substrate was buffered in 25 mM HEPES, pH 7.0, 140 mM NaCl and 0.01% NaN3. Due to the lower background hydrolysis of RT3 substrate at neutral pH, reactions were typically run for 24 hours. A blank was also analyzed and gives a profile similar to the that in FIG. 17B (data not shown).

| Compound | inhibition of scFv binding to RT3-BSA [1] | inhibition of scFv binding to RT3-BSA [2] | inhibition of scFv binding to RT3-BSA [3] | inhibition of scFv binding to RT3-BSA [4] | inhibition of scFv binding to RT3-BSA [5] | inhibition of scFv binding to RT3-BSA [6] | inhibition of scFv binding to RT3-BSA [7] | inhibition of scFv binding to RT3-BSA [8] | inhibition of scFv binding to RT3-BSA [9] | catalysis in the presence of RT3 hapten ([10]; IMAC pure scFv, 50 uM RT3 substrate, pH 9.0, 6 hours, 5 μl RT3 hapten added (concentration not given), FIG. 15B) | inhibition of catalytic activity ([10]; secondary screening, pH 9.0, 10 μM antibody, 40 μM substrate, 30 μM hapten) | catalysis in the presence of RT3 hapten ([11]; IMAC pure scFv, RT3 substrate, pH 7.0, 24 hours, RT3 hapten added (concentration not given), FIG. 17B) | inhibition of catalytic activity ([11]; secondary screening, pH 7.0, 10 μM antibody, 40 μM substrate, 30 μM hapten) |
| --- | --- | --- | --- | --- | --- | --- | --- | --- | --- | --- | --- | --- | --- |
| NC(=O)Cc1ccc(O)cc1 [Product B, 4-Hydroxyphenylacetamide] | No inhibition | No inhibition | No inhibition | No inhibition | No inhibition | No inhibition | No inhibition | No inhibition | No inhibition | – | – | – | – |
| Cc1cc(C)c(CP(=O)(O)Oc2ccc(CC(=O)O)cc2)c(C)c1 [RT3 hapten, 4-(carboxymethyl) phenyl-(2,4,6-trimethylphenyl)-methyl phosphonate] | did not show inhibition | did not show inhibition | inhibited | inhibited | inhibited | inhibited | inhibited | inhibited | inhibited | completely abrogated | significantly inhibited | completely abrogated | significantly inhibited |
| COP(=O)(O)Cc1c(C)cc(C)cc1C [RT3A] | – | – | binding inhibition | binding inhibition | – | binding inhibition | – | binding inhibition | binding inhibition | – | – | – | – |
| Cc1cc(C)c(CC(=O)O)c(C)c1 [Product A, Mesitylacetic acid, reference compound] | – | – | – | to a lesser extent | – | – | – | to a lesser extent | – | – | – | – | – |
